The record followed here is article PMC6721765, “Synthesis of Daidzein Glycosides, α-Tocopherol Glycosides, Hesperetin Glycosides by Bioconversion and Their Potential for Anti-Allergic Functional-Foods and Cosmetics” (Molecules, 2019).

Like-named read-outs stand apart in the source and are kept apart here.

By IC50 is commonly meant the concentration that gives 50% inhibition.

The test system of assay [1] is rat peritoneal mast cells. The experiment in a line: Inhibition of compound 48/80-induced histamine release from rat peritoneal mast cells. The format is cell-based. Conditions: Mast cell. On the procedure:
The %inhibition of hesperetin 3′-β-glucoside (9) and hesperetin 7-β-glucoside (10) was higher than that of hesperetin (8). […] The inhibitory activity toward histamine release of hesperetin 7-β-gentiobioside (12) was stronger than hesperetin diglucoside 11. The anti-allergic activities were examined at pH 7.4 and 37 °C according to the reported methods. The pH and temperature of the reaction mixture may have an effect on anti-allergic activities. Effects of pH and temperature on anti-allergic activities of the obtained glycosides should be investigated and reported on in the near future.
The effects of daidzein, α-tocopherol, hesperetin, and their glycosides on compound 48/80-induced histamine release from rat peritoneal mast cells were examined as follows. Peritoneal mast cells were collected from the abdominal cavities of rats (Male Wistar rats, Nippon SLC) and purified to a level higher than 95%. The purified mast cells were suspended in a physiological buffered solution (PBS) containing 145 mM NaCl, 2.7 mM KCl, 1.0 mM CaCl2, 5.6 mM glucose, and 20 mM 4-(2-hydroxyethyl)-1-piperazineethanesulfonic acid (HEPES) (pH 7.4) to give approximately 10^4 mast cells/mL. Cell viability was always greater than 90% as judged by the trypan blue exclusion test. Mast cells were preincubated with the test compound (1 μM) for 15 min at 37 °C, and subsequently exposed to compound 48/80 at 0.35 μg/mL. Histamine release was determined by a fluorometric assay, and was expressed as a percentage of total histamine.

The target in assay [2] is Mushroom tyrosinase (EC 1.14.18.1). Kind of assay: Tyrosinase assay (dopachrome formation at 475 nm). Conditions: L-DOPA or L-tyrosine as substrate, pH 6.8, 30 °C, mean ± standard deviation from triplicate experiments, read-out: Tyrosinase Inhibitory Activity IC50. Type of assay: biochemical. On the procedure: Mushroom tyrosinase (EC 1.14.18.1) (Sigma-Aldrich Chemical Co., St. Louis, MO, USA) was used for the tyrosinase assay, with either L-DOPA or L-tyrosine as a substrate. In spectrophotometric experiments, enzyme activity was taken as the initial velocity (Vi) monitored by observing dopachrome formation at 475 nm with a UV spectrophotometer at 30 °C. All samples were dissolved in ethanol at 10 mM. First, 200 μL of a 2.7 mM L-tyrosine or 5.4 mM L-DOPA aqueous solution was mixed with 2687 μL of 0.25 M phosphate buffer (pH 6.8). Next, 100 μL of the sample solution and 13 μL of the same phosphate buffer solution containing mushroom tyrosinase (144 units) were added to the mixture.

Where [3] appears, read: test compound 1 μM, preincubated 15 min at 37 °C, pH 7.4, compound 48/80 at 0.35 μg/mL, Male Wistar rat peritoneal mast cells, read-out: Histamine Release-Inhibiting Activity / %inhibition.
The mark [4] stands for this setting: Rattus norvegicus, pH 7.4, read-out: Histamine Release-Inhibiting Activity / %inhibition.

On to `O=c1c(-c2ccc(O)cc2)coc2cc(O)ccc12` [Compound 1, daidzein], for which the inhibition at 1 µM in assay [1] (setting [3]) turned out to be 58%. In addition, the IC50 in assay [2] stood at 392 ± 88 µM.
Regarding `O=c1c(-c2ccc(O)cc2)coc2cc(OC3OC(COC4OC(CO)C(O)C(O)C4O)C(O)C(O)C3O)ccc12` (stereo not drawn) [Compound 3, daidzein 7-β-gentiobioside], in assay [1] (setting [3]), the inhibition at 1 µM was 67%. Further, the IC50 in assay [2] worked out at 280 ± 33 µM.
The like results for `COc1ccc(C2CC(=O)c3c(O)cc(OC4OC(CO)C(O)C(O)C4O)cc3O2)cc1OC1OC(CO)C(O)C(O)C1O` (stereo not drawn) [Compound 11, hesperetin 3′,7-β-diglucoside] were, in that order, 63% and 176 ± 35 µM.
With `O=c1c(O)c(-c2ccc(O)cc2)oc2cc(O)cc(O)c12` [Kaempferol, reference compound], in assay [1] (setting [3]), the inhibition at 1 µM was found to be 80%.
With `COc1ccc([C@@H]2CC(=O)c3c(O)cc(O)cc3O2)cc1O` [Compound 8, hesperetin], in assay [1] (setting [3]), the inhibition at 1 µM was 38%. In addition, the IC50 in assay [2] turned out to be 437 ± 76 µM.
For the molecule `O=c1c(-c2ccc(O)cc2)coc2cc(OC3OC(CO)C(O)C(O)C3O)ccc12` (stereo not drawn) [Compound 2, daidzein 7-β-glucoside], the inhibition at 1 µM in assay [1] (setting [4]) is 62%. The half-maximal inhibitory concentration (IC50) in assay [2] was found to be 303 ± 45 µM.
In the case of `Cc1c(C)c2c(c(C)c1O[C@@H]1O[C@H](CO)[C@H](O)[C@H](O)[C@H]1O)CC[C@@](C)(CCC[C@H](C)CCC[C@H](C)CCCC(C)C)O2` [Compound 7, α-tocopherol 6-β-galactoside], in assay [1] (setting [3]), the inhibition at 1 µM stood at 82%. Also, in assay [2], the IC50 stood at 54 ± 25 µM.
For the molecule `COc1ccc(C2CC(=O)c3c(O)cc(OC4OC(COC5OC(CO)C(O)C(O)C5O)C(O)C(O)C4O)cc3O2)cc1O` (stereo not drawn) [Compound 12, hesperetin 7-β-gentiobioside], the inhibition at 1 µM in assay [1] (setting [3]) amounted to 69%. Also, the 50% inhibitory concentration (IC50) in assay [2] amounted to 139 ± 14 µM.
Turning to `O=c1c(-c2ccc(O)cc2)coc2cc(O[C@@H]3O[C@H](CO)[C@H](O)[C@H](O)[C@H]3O)ccc12` [Compound 5, daidzein 7-β-galactoside], the inhibition at 1 µM in assay [1] (setting [4]) worked out at 76%. In assay [2], the IC50 amounted to 102 ± 39 µM.
Regarding `COc1ccc(C2CC(=O)c3c(O)cc(O)cc3O2)cc1OC1OC(CO)C(O)C(O)C1O` (stereo not drawn) [Compound 9, hesperetin 3′-β-glucoside], the inhibition at 1 µM in assay [1] (setting [3]) worked out at 40%. In assay [2], the IC50 is 355 ± 32 µM.
The like results for `Cc1c(C)c2c(c(C)c1O)CC[C@@](C)(CCC[C@H](C)CCC[C@H](C)CCCC(C)C)O2` [Compound 6, α-tocopherol] were, in that order, 61% and 510 ± 108 µM.
Taken in the same sequence, the figures for `COc1ccc(C2CC(=O)c3c(O)cc(OC4OC(CO)C(O)C(O)C4O)cc3O2)cc1O` (stereo not drawn) [Compound 10, hesperetin 7-β-glucoside] were 45% and 318 ± 27 µM.
The like results for `O=c1c(-c2ccc(O[C@@H]3O[C@H](CO)[C@H](O)[C@H](O)[C@H]3O)cc2)coc2cc(O)ccc12` [Compound 4, daidzein 4′-β-galactoside] were, in that order, 70% and 125 ± 41 µM.
